Assay results: US10617656B2, “Methods of increasing the cytotoxicity of chemotherapeutic agents with multisubstrate inhibitors of histone, protein-Lys, polyamine acetylation, and polyamine metabolism” (Vanderbilt University, priority 2010, dated 2020)

Tests used:
MCF7 breast cancer cells = settings: for effect as single agent on viability: 72 hr assay, DFMO 100 μM, 5FU 2 μM, doxorubicin 100 nM
Experimental: Viability was measured 3 days after the start of treatment and is expressed as a percentage of control (untreated) cell viability.
Each point is average of triplicates. […]
The present inventors carried out 96-well viability assays as we have previously described (Saadatmandi et al, Cancer Gene Therapy (2002) 9:830-9), in which MCF7 breast cancer cells were plated at 3000 cells per well. After overnight attachment, triplicate wells were treated with increasing doses of inhibitor 1a. Control wells were left untreated. After 3 days, cell viability was measured by the MTS assay, which measures the bioconversion of an uncolored substrate to a colored formazan derivative, and is proportional to cell number.

[1] = test system: MDA MB-435 breast cancer cells; test: 72 hr viability assay, MDA MB-435; assay type: cell-based; settings: 72 hr assay; DFMO 100 μM, 5FU 2 μM, doxorubicin 100 nM
H358 lung cancer cells [2] = test: [3H]-thymidine incorporation (DNA synthesis) assay in H358 cells; assay type: cell-based; settings: 5 nM alone (18 or 24 hours)
Experimental: (A) Structures of 1a, and the acetylated side chain of a lysine residue within the polypeptide chain of a protein targeted by the acetylating enzyme (R1 and R2 are the main chain elements on both sides of the lysyl residue). (B) [^3H]-thymidine incorporation into DNA of H358 cells pulsed for 6 hrs at three different time points after the addition of increasing concentrations of 1a, i.e., at 6-12 hrs (12 hr curve), at 18-24 hours (24 hr curve), or at 42-48 hrs (48 hr curve). Incorporation is represented as a percentage relative to control (untreated) cells. (C) Cell cycle analysis of propidium iodide-stained cells harvested at various times after addition of 50 μM 1a. % of cells in G1, S, and G2 represents the average of two independent profiles. (D) Western analysis of histone H3 lysine 9 acetylation, histone H3 lysine 56 acetylation, histone H3 lysine 9 methylation, and total histone H3, before “c” or at the indicated times after addition of 50 μM 1a. Each lane represents 60 μg cellular protein.
(§1) Control cells were left untreated. […] Control cells were left untreated.
Cells were either labeled immediately before treatment (starting DNA synthesis rate), or subjected to the indicated treatments and then pulsed on successive days until day 4. DNA synthesis is represented as the percent of starting DNA synthesis rate. Viability was determined for each treatment condition 24 hours post-start of treatment by the trypan blue exclusion assay, with percentages of viable cells indicated to the right of the graph.
H358 cells (2,000/well) in 96-well plates were treated with 1, 10 or 50 μM of spd-1a, spd-2a, spd-3a, spm3, or spm2 for 12 hours. Triplicate wells of cells were pulsed 6 hours with 0.5 μCi [^3H]-thymidine (NEN, Boston Mass.) post-start of drug treatment, and harvested onto filter paper using a Brandel Harvester and subjected to scintillation counting. Untreated cells were pulsed from 0-6 hrs to establish the initial rate of incorporation.
Cells were plated in 96-well plates (2000 cells per well to insure conditions for exponential growth for untreated cells over the time course of the experiment) and exposed to the following treatments: 1a (50 μM); camptothecin (Sigma, St Louis, Mo. 5 nM, 18 hours); cisplatin (Platinol, obtained through local pharmacies, 2 μM, 1 hour 15 minutes), 5-fluorouracil (5FU, Adrucil™, obtained through local pharmacies, 2 μM, 1 hour 15 minutes), Taxotere (provided by the late Dr. Pierre Potier, 5 nM, 18 hours). UVC treatment (40 J/m^2) using a Stratalinker™, Stratagene, La Jolla, Calif.) was carried using medium lacking phenol red. At 0-6 hr, 18-24 hr (day 1), 42-48 hr […], 66-72 hr (day 3), and 90-96 hr (day 4) post-start of treatment, triplicate wells were incubated with 0.5 μCi [^3H]-thymidine (NEN, Boston Mass.), harvested onto filter paper, and subjected to scintillation counting. Trypan blue exclusion assays for cell membrane integrity were carried out as known in the art.
The present inventors used 96-well viability assays as described in Saadatmandi et al (Cancer Gene Therapy (2002) 9:[…]) to examine the effect of 1a on DNA synthesis in H358 cells, as well as the combined effects of 1a and chemotherapeutic agents. H358 cells were plated in 96-well plates at 3000 cells per well. […]

γ-H2A.X in H358 cells = test: γ-H2A.X Western / double strand break repair assay; assay type: cell-based; settings: 18 hours post-start; low doses as in FIG. 3
Experimental: Also shown are controls for no treatment (“c” minus 1a) or treatment with 1a only (“c” plus 1a). Each lane represents 60 μg protein. […] Each lane represents 60 μg protein.
To measure DSB repair, cells were incubated for 1 hour with 10 μM camptothecin to induce DSBs, followed by incubation in the presence or absence of 50 μM 1a. At fixed times, histones were prepared by extraction in 0.2M H2SO4 as described previously and 50 μg extract was analyzed by 12% SDS-PAGE followed Western analysis as described previously, using rabbit polyclonal anti-γ-H2A.X [phosphor ser 139] (Novus Biologicals, Littleton, Colo.) or anti-H3 (Upstate Biotechnology, Inc, Lake Placid, N.Y.). Band intensities were quantitated digitally. To study acetylation of γ-H2A.X, we carried out co-immunoprecipitation analysis using 50 μg extract protein in immunoprecipitation buffer (10 mM sodium phosphate pH 7, 0.15 M NaCl, 0.1% SDS, 1% NP40, 1% sodium deoxycholate, aprotinin, 1 mM PMSF, complete protease inhibitors (Roche) using immobilized anti-acetyl-lysine (Millipore, Temecula, Calif.) in the immunoprecipitation step. The immunoprecipitated material was then analyzed as for Western analysis using anti γ-H2A.X.

[3] = test system: GT41F human skin fibroblast cells; test: [3H]-thymidine incorporation in normal fibroblasts; assay type: cell-based; settings: 50 μM 1a alone or 5 nM camptothecin alone
Description: Cells were either labeled immediately before treatment (starting DNA synthesis rate), or subjected to the indicated treatments and then pulsed on successive days until day 4. DNA synthesis is represented as the percent of starting DNA synthesis rate.
The present inventors used a 96-well viability assays as described in Saadatmandi et al (Cancer Gene Therapy (2002) 9:930-9) to examine the effect of the spermidine-CoA inhibitor disclosed previously on DNA synthesis in normal GT41F human skin fibroblast cells, as well as its combined effect with camptothecin. GT41F cells were plated in 96-well plates at 3000 cells per well. […] Following the 6-hour labeling, cells were harvested and incorporation of [^3H]-thymidine was determined by scintillation counting.

[4] = test system: γ-H2A.X in DU145 prostate cancer cells; test: γ-H2A.X immunofluorescence in DU145 cells; assay type: cell-based; settings: 5 nM camptothecin alone, 8 hours
Description: The immunofluorescence images on the left and right sides of the middle scheme illustrate this visually. […] Cells were fixed and stained with a rabbit antibody to the histone variant, γ-H2A.X, a marker for DNA double stranded breaks, followed by staining with a fluorescein (FITC)-tagged goat anti rabbit secondary antibody. Nuclei were stained with Hoescht 33345.

[5] = test system: DU145 prostate cancer cells; test: Viability assay, DU145; assay type: cell-based; settings: 5 nM camptothecin or 10 μM 2a
Experimental: (§2) Cells were plated in 96-well plates at 2000 cells per well and treated with the indicated doses of spd-3a. Cell viability was measured by the MTS assay 3 days later.

BT20 TNBC cells = test: 3-day viability assay, BT20; assay type: cell-based; settings: 5 nM
Description: (§3) Date of exp: Jul. […] Date of exp: Sep.
The effect of spd-2a on the BT20 breast cancer cell line derived form a spontaneous TNBC with wild-type BrCa1 was examined. […] Having previously established that spd-2a is a therapy sensitizer, the present inventors then examined the combined effects of spd-2a and camptothecin (the basis for the chemotherapeutic drug, Irinotecan).

H358 lung cancer cells [6] = assay type: cell-based
Experimental: as §1
Cells were given fresh inhibitor on the first, second, and third days of treatment and viability was measured on the 4th day (i.e. 3 days post start of treatment). […]
(A) Structure of Spd-3a. (B) Western analysis of histone H3K9-acetylation and total histone H3, measured in control, untreated H358 lung cancer cells “C” or in H358 cells incubated 12 hours in the presence of 50 μM Spd-2a or Spd-3a. Each lane represents 60 μg cellular protein. (C) [3H]-thymidine incorporation (counts per minute) into DNA of H358 cells during a 6 hour pulse beginning at 42 hours post-start of treatment. Treatments were as follows (bars 1-6 left to right): (1) control: no treatment; (2) CPT alone: 5 nM 18 hours; (3) 3a alone: 50 μM; (4-6) 3a+CPT: CPT (5 nm, 18 hours)+3a at indicated dose. After 18 hours, CPT was removed and medium was replaced with fresh medium containing Spd-3a at the indicated dose. Each bar represents the average of triplicates. (D) 3-day 96-well viability assay of H358 cells grown in the presence of increasing amounts of Spd-2a or Spd-3a, with or without CPT (5 nM 18 hours). […] Each data point represents the average of three wells.
as §3, §2
DLD-1 cells or H358 cells were plated in 96-well plates at 2000 cells per well and treated with the indicated doses of (A) spm-3 or (B) spm-2. (C) Cell viability was measured by the MTS assay 3 days later. Similar experiment using GT41 fibroblasts with spm2 or spm 3. Each assay point represents an average of duplicates. […]

[7] = test system: endogenous HATs associated with solubilized chromatin; settings: Bandyopadhyay et al, 2009; cited from earlier work

COc1cccc2c1C(=O)c1c(O)c3c(c(O)c1C2=O)C[C@@](O)(C(=O)CO)C[C@@H]3O[C@H]1C[C@H](N)[C@H](O)[C@H](C)O1 [doxorubicin]
effect as single agent on viability (MCF7 breast cancer cells): minimal effects
effect as single agent on viability [1]: minimal effects

CC[C@@]1(O)C(=O)OCc2c1cc1n(c2=O)Cc2cc3ccccc3nc2-1 [camptothecin]
effect of camptothecin alone on [3H]-thymidine incorporation (H358 lung cancer cells [2]): no detectable effect
2-day cell viability relative to untreated cells (MCF7 breast cancer cells; 5 nM camptothecin alone, 18 hour): no effect
γ-H2A.X level, single agent (γ-H2A.X in H358 cells): weakly detectable
effect on incorporation of [3H]-thymidine, single agent [3]: virtually no effect
DNA damage (γ-H2A.X staining) [4]: minimal damage
effect of the dose on cell viability, single agent [5]: minimal effects on cell viability
effect of camptothecin by itself (BT20 TNBC cells): no effect

O=c1[nH]cc(F)c(=O)[nH]1 [5FU, 5-Fluorouracil]
effect as single agent on viability (MCF7 breast cancer cells): minimal effects
γ-H2A.X level, single agent (γ-H2A.X in H358 cells): weakly detectable
effect as single agent on viability [1]: minimal effects

CC(C)(COP(=O)(O)OP(=O)(O)OC[C@H]1O[C@@H](n2cnc3c(N)ncnc32)[C@H](O)[C@@H]1OP(=O)(O)O)[C@@H](O)C(=O)NCCC(=O)NCCSCC(=O)NCCCCNCCCN [1b, spermidine [N8]-CoA]
suppression of 3 day cell viability (H358 lung cancer cells [6]): 60-70%
inhibitory activity against endogenous HAT activity, isomers compared [7]: comparable inhibitory activity

N.N.[Cl][Pt][Cl] [cisplatin, cis-diamminedichloro-platinium]
γ-H2A.X level, single agent (γ-H2A.X in H358 cells): weakly detectable
